Data on one substance can be found in patent US7214366B2, “Isolatable, water soluble, and hydrolytically stable active sulfones of poly(ethylene glycol) and related polymers for modification of surfaces and molecules” (Nektar Therapeutics AL, Corporation, priority 1993, dated 2007).

The conditions of the data set: pH 7.

On to “poly(ethylene glycol) chloroethyl sulfone [PEG chloroethyl sulfone]”, for which the “stability in water, NMR after extraction” value is on record as “stable”.
